Article PMC10740499, “Benzodioxane–Benzamides as FtsZ Inhibitors: Effects of Linker’s Functionalization on Gram-Positive Antimicrobial Activity” (Antibiotics, 2023)
In brackets after ≈: the same amount, converted by molar mass. Several values for one entry are separate records, joined by “and”; a condition that tells them apart may be missing. Identical values can stand only once. Like-named read-outs stand apart in the source and are kept apart here.

How the values were obtained:
[1] = system: methicillin-sensitive S. aureus (MSSA, ATCC29213); experiment: MIC, broth dilution, MSSA ATCC 29213; type: cell-based, Staphylococcus aureus
Description: (§1) As described in our previous work, we evaluated all the compounds mentioned above on different S. aureus strains. We tested on both methicillin-sensitive S. aureus (MSSA, ATCC29213) and two clinical isolates of S. aureus showing multi-drug resistance (MDRSA). […] We analyzed the MICs and, if the antibacterial activity was promising, we also determined the percentage of cytotoxicity using the MTT assay on human MRC-5 cells and reported it as TD90. The results of antibacterial properties of all of the synthesized derivatives are shown in Table 1, and they are compared with their reference compounds FZ14, FZ88, and FZ100.
Gram-positive methicillin-sensitive Staphylococcus aureus (MSSA, ATCC 29213) was grown in Luria–Bertani broth (LB), as already described in our papers.
(§2) The detailed protocol is identical to what was previously reported. Briefly, the antimicrobial testing of compounds followed the Clinical and Laboratory Standards Institute and European Committee for Antimicrobial Susceptibility Testing guidelines. A bacterial suspension equivalent to 0.5 McFarland turbidity standard was diluted in cation-adjusted Mueller Hinton broth to prepare a fresh bacterial culture of 10^5 CFU/mL. Compounds dissolved in DMSO were combined with the bacteria and incubated for 20 h at 35 °C. MIC values were determined visually as the lowest compound dilution with no turbidity. MICs were determined against methicillin-sensitive and methicillin-resistant S. aureus strains (11.7 and 12.1). Every assay was performed in triplicate, and for each series of experiments, both positive (tetracycline) and negative (no compounds) controls were included.

MDRSA 11.7 = experiment: MIC, broth dilution, MDRSA 11.7; type: cell-based, Staphylococcus aureus; settings: MDRSA 11.7 clinical isolate
Description: as §1, §2

[2] = system: B. subtilis strain WM5126; experiment: MIC from broth microdilution; type: cell-based, Bacillus subtilis
Description: (§3) We further evaluated the most promising compounds on B. subtilis, a model Gram-positive species used previously in evaluating other benzamides, including by our research group. The B. subtilis strain WM5126 expresses a xylose-inducible GFP-tagged ZapA protein. […] We first tested the effects of the compounds on colony viability on solid medium (Figure 4). […] MIC values from microdilution experiments, shown in the right column in Figure 4, largely mirrored the spot viability data.
(§4) The B. subtilis strain used was WM5126 (JH642 amyE::Pxyl-gfp-zapA). For spot viability assays on plates, compounds were diluted from DMSO stocks into molten LB agar and mixed well before solidifying. To assess viability, cells were grown until the early log phase, and then 10-fold serial dilutions of the culture in LB were spotted onto LB agar plates containing the indicated final concentration of the compounds. The plates were incubated overnight at 30 °C and photographed. Microdilution assays to obtain MICs were performed essentially as described for E. coli.

MDRSA 12.1 = experiment: MIC, broth dilution, MDRSA 12.1; type: cell-based, Staphylococcus aureus; settings: MDRSA 12.1 clinical isolate
Description: as §1, §2

[3] = system: B. subtilis strain WM5126; experiment: Spot viability assay on solid medium; type: cell-based, Bacillus subtilis; settings: for concentration able to kill on solid medium: spot dilutions on LB agar; for growth on solid medium at 6 µg/mL: 6 µg/mL in LB agar; for colony viability on solid medium, in words: more potent compounds, Figure 4A
Description: as §3, §4

human MRC-5 cells [4] = experiment: MTT cytotoxicity assay; type: cell-based; settings: MRC-5, MTT assay
Description: as §1
Normal human lung fibroblasts (MRC-5) were grown in Dulbecco’s Modified Eagle’s medium (DMEM) supplemented with 10% heat-inactivated fetal calf serum (FCS), 100 U/mL penicillin, and […] streptomycin.
Compounds showing promising antibacterial activity were serially diluted in DMEM and tested for cytotoxicity on MRC-5 cells using the MTT assay (Sigma, St Louis, MO, USA), following the same protocol we previously reported.

[5] = system: FtsZ rings in live B. subtilis WM 5126 cells expressing GFP-ZapA; experiment: GFP-ZapA fluorescence microscopy of FtsZ assembly; type: cell-based, Bacillus subtilis; settings: 0.3 µg/mL (0.8 µM), 90 min
Experimental: To test if the differential effects of FZ116 and FZ117 enantiomers could be detected as FtsZ assembly changes in B. subtilis cells, we visualized GFP-ZapA patterns after growth in inhibitory concentrations of FZ116 and FZ117 (0.3 µg/mL or 0.8 µM). Cells grown with no added compound grew as typical single bacilli and short chains, with well- defined Z rings clearly visible (Figure 5, left panel, single yellow arrows). […] This conversion of FtsZ rings into a speckle pattern was observed previously, both with FZ100 [14] and with the original benzamide derivatives.
For fluorescence microscopy, overnight cultures of WM5126 were grown at 33 °C (after 1:200 dilution overnight and addition of 0.1% xylose to induce expression of GFP-ZapA) for ~2 h until reaching an OD600 of ~0.2 and then treated with no drug or with compounds FZ116 or FZ117 diluted in water to a final concentration of 0.3 µg/mL (0.8 µM) from stock solutions of 30 mg/mL in DMSO. After the addition of the compounds, the cultures were grown for 90 min while shaking at 33 °C prior to spotting on a thin layer of 1% agarose in phosphate-buffered saline. Cells were imaged with an Olympus BX100 fitted with a 100 × Plan Apochromat objective (N.A. 1.4) and a GFP filter set (Chroma). Images were acquired with CellSens Dimension version 2 software (Evident Corporation, Tokyo, Japan).

E. coli FtsZ = system: E. coli FtsZ; set-up: method as in PMID 37634788; settings: in words; cited from earlier work
[6] = system: methicillin-resistant S. aureus (MRSA); settings: cited from earlier work
[7] = system: methicillin-sensitive Staphylococcus aureus (MSSA); settings: cited from earlier work
human MRC-5 cells [8] = system: human MRC-5 cells; set-up: method as in PMID 33920895; settings: in words; cited from earlier work
B. subtilis = system: B. subtilis; set-up: method as in PMID 33920895; settings: cited from earlier work
[9] = Staphylococcus aureus, 20 h, MSSA ATCC 29213, 20 h at 35 °C, read-out: MIC
[10] = Staphylococcus aureus, read-out: MIC vs S. aureus
[11] = Bacillus subtilis, value in brackets
[12] = MSSA ATCC 29213, 20 h at 35 °C, read-out: MIC
[13] = as repeated in Table S1 beside the docking ranges, read-out: MIC vs S. aureus

Structure (SMILES)	MIC [1, 9]	MIC [1, 10]	MIC (MDRSA 11.7; Staphylococcus aureus)	MIC ([2]; Bacillus subtilis)	MIC [2, 11]	MIC (MDRSA 12.1; Staphylococcus aureus)	TD90 (human MRC-5 cells [4])	further results
C[C@H](Oc1ccc(F)c(C(N)=O)c1F)[C@H]1COc2ccccc2O1 (relative stereo) [FZ104, 3-[1-(1,4-benzodioxan-2yl)ethyl-1-oxy]-2,6-difluorobenzamide]	23.9 µM (≈ 8.01 µg/mL)	23.9 µM (≈ 8.01 µg/mL)	23.9 µM (≈ 8.01 µg/mL)	3.75 µg/mL	11 µM	23.9 µM (≈ 8.01 µg/mL)		concentration able to kill on solid medium ([3]; overnight 30 °C): 6 µg/mL; concentration able to kill on solid medium ([3]; value in brackets): ~ 20 µM
NC(=O)c1c(F)ccc(OC[C@H](O)[C@H]2COc3ccccc3O2)c1F (relative stereo) [FZ112]	364 µM (≈ 128 µg/mL)	364 µM (≈ 128 µg/mL)	364 µM (≈ 128 µg/mL)	7.5 µg/mL	21 µM	364 µM (≈ 128 µg/mL)		growth on solid medium at 6 µg/mL [3]: still permitted growth
NC(=O)c1c(F)ccc(OC[C@@H](O)[C@H]2COc3ccccc3O2)c1F (relative stereo) [FZ113]	364 µM (≈ 128 µg/mL)	364 µM (≈ 128 µg/mL)	364 µM (≈ 128 µg/mL)	15 µg/mL	42 µM	364 µM (≈ 128 µg/mL)		growth on solid medium at 6 µg/mL [3]: still permitted growth
NC(=O)c1c(F)ccc(OC[C@H](O)[C@H]2COc3cc4c(cc3O2)CCCC4)c1F (relative stereo) [FZ116]	4.9 µM (≈ 1.99 µg/mL)	4.9 µM (≈ 1.99 µg/mL)	4.9 µM (≈ 1.99 µg/mL)	< 0.24 µg/mL	< 0.6 µM	4.9 µM (≈ 1.99 µg/mL)	468.7 µM	FtsZ ring / GFP-ZapA pattern [5]: largely disrupted; in vitro inhibition of E. coli FtsZ (E. coli FtsZ): very strong; colony viability on solid medium, in words [3]: killed B. subtilis at the lowest doses
NC(=O)c1c(F)ccc(OC[C@@H](O)[C@H]2COc3cc4c(cc3O2)CCCC4)c1F (relative stereo) [FZ117]	19.7 µM (≈ 7.99 µg/mL)	19.7 µM (≈ 7.99 µg/mL)	19.7 µM (≈ 7.99 µg/mL)	0.94 µg/mL	2.7 µM	19.7 µM (≈ 7.99 µg/mL)	468.7 µM	FtsZ ring / GFP-ZapA pattern [5]: mixture of FtsZ speckles and Z rings; colony viability on solid medium, in words [3]: less effective
NC(=O)c1c(F)ccc(OCC2COc3ccccc3O2)c1F (stereo not shown) [FZ14, reference compound]	15.6 µM (≈ 5.01 µg/mL)		15.6 µM (≈ 5.01 µg/mL)			15.6 µM (≈ 5.01 µg/mL)	49.8 µM	
NC(=O)c1c(F)ccc(OCCC2COc3ccccc3O2)c1F (stereo not shown) [FZ88, reference compound]	14.9 µM (≈ 5 µg/mL)		14.9 µM (≈ 5 µg/mL)			14.9 µM (≈ 5 µg/mL)	226 µM	
NC(=O)c1c(F)ccc(OCCC2COc3cc4ccccc4cc3O2)c1F (stereo not shown) [FZ95]								MIC [6]: 0.25 μg/mL and 0.6 μM; MIC [7]: 0.25 μg/mL and 0.6 μM; cytotoxicity towards human MRC-5 cells (human MRC-5 cells [8]): low to no cytotoxicity; MIC (B. subtilis): under 0.1 μg/mL
CC(COc1ccc(F)c(C(N)=O)c1F)C1COc2ccccc2O1 (stereo not shown) [FZ97, 3-(2-(1,4-benzodioxan-2-yl)-1-propyloxy)-2,6-difluorobenzamide]								MIC [1, 12]: 366.4 µM (≈ 128 µg/mL); MIC [1, 13]: 366.4 µM (≈ 128 µg/mL); MIC (MDRSA 11.7): 366.4 µM (≈ 128 µg/mL); MIC (MDRSA 12.1): 366.4 µM (≈ 128 µg/mL)
CC(COc1ccc(F)c(C(N)=O)c1F)C1COc2ccccc2O1 (stereo not shown) [FZ98, 3-(2-(1,4-benzodioxan-2-yl)-1-propyloxy)-2,6-difluorobenzamide]				15 µg/mL	42 µM			MIC [1, 12]: 91.6 µM (≈ 32 µg/mL); MIC [1, 13]: 91.6 µM (≈ 32 µg/mL); MIC (MDRSA 11.7): 91.6 µM (≈ 32 µg/mL); MIC (MDRSA 12.1): 91.6 µM (≈ 32 µg/mL); growth on solid medium at 6 µg/mL [3]: still permitted growth
NC(=O)c1c(F)ccc(OCCC2COc3cc4c(cc3O2)CCCC4)c1F (stereo not shown) [FZ100]	0.25 µM (≈ 0.0973 µg/mL)		0.25 µM (≈ 0.0973 µg/mL)			0.25 µM (≈ 0.0973 µg/mL)	2054 µM	MIC [6]: 0.1 μg/mL and 0.25 μM; MIC [7]: 0.1 μg/mL and 0.25 μM; cytotoxicity towards human MRC-5 cells (human MRC-5 cells [8]): low to no cytotoxicity; MIC (B. subtilis): under 0.1 μg/mL
CC(Oc1ccc(F)c(C(N)=O)c1F)C1COc2ccccc2O1 (stereo not shown) [FZ105, 3-[1-(1,4-benzodioxan-2yl)ethyl-1-oxy]-2,6-difluorobenzamide]	191 µM (≈ 64 µg/mL)	191 µM (≈ 64 µg/mL)	191 µM (≈ 64 µg/mL)			191 µM (≈ 64 µg/mL)		
CC(COc1ccc(F)c(C(N)=O)c1F)C1COc2cc3c(cc2O1)CCCC3 (stereo not drawn) [FZ118, Erythro 3-(2-(5,6,7,8-Tetrahydro-1,4-naphthodioxan-2-yl)prop-1-yloxy)-2,6-difluorobenzamide]	9.9 µM (≈ 3.99 µg/mL)	9.9 µM (≈ 3.99 µg/mL)	9.9 µM (≈ 3.99 µg/mL)	< 0.24 µg/mL	< 0.6 µM	9.9 µM (≈ 3.99 µg/mL)	471.0 µM	colony viability on solid medium, in words [3]: less effective
CC(COc1ccc(F)c(C(N)=O)c1F)C1COc2cc3c(cc2O1)CCCC3 (stereo not drawn) [FZ119, Threo 3-(2-(5,6,7,8-Tetrahydro-1,4-naphthodioxan-2-yl)prop-1-yloxy)-2,6-difluorobenzamide]							247.9 µM	MIC [1, 12]: 9.9 µM (≈ 3.99 µg/mL); MIC [1, 13]: 9.9 µM (≈ 3.99 µg/mL); MIC (MDRSA 11.7): 9.9 µM (≈ 3.99 µg/mL); MIC (microdilution) [2]: < 0.24 µg/mL; MIC ([2]; value in brackets): < 0.6 µM; MIC (MDRSA 12.1): 9.9 µM (≈ 3.99 µg/mL); colony viability on solid medium, in words [3]: killed B. subtilis at the lowest doses
NC(=O)c1c(F)ccc(OCc2nc3cc(Cl)cnc3s2)c1F [PC190723]								MIC [6]: 1 µg/mL (≈ 2.81 µM); MIC [7]: 1 µg/mL (≈ 2.81 µM)
